For experiment [1], the target named is GDP-bound KRAS protein (aa 1-169), containing both G12C and C118A amino acid substitutions (Homo sapiens, UniProt P01116, C118A/G12C). The experiment is described as follows: Coupled Nucleotide Exchange Assay (SOS-mediated nucleotide exchange, AlphaScreen). The class given is biochemical. As to conditions: compound pre-incubation either 5 min or 2 hours (not stated per compound); SOS and GTP added, cRAF AlphaScreen read-out. As for the experimental part:
(§1) For compounds in Table 6, the following assay conditions were employed:
Coupled Nucleotide Exchange Assay: Purified GDP-bound KRAS protein (aa 1-169), containing both G12C and C118A amino acid substitutions and an N-terminal His-tag, was pre-incubated in assay buffer (25 mM HEPES pH 7.4, 10 mM MgCl2, and 0.01% Triton X-100) with a compound dose-response titration for either 5 min or 2 hours (see Table 15). Following compound pre-incubation, purified SOS protein (aa 564-1049) and GTP (Roche 10106399001) were added to the assay wells and incubated for an additional 30 min (for 5 min compound pre-incubation) or 1 hour (for 2 hour compound pre-incubation). To determine the extent of inhibition of SOS-mediated nucleotide exchange, purified GST-tagged cRAF (aa 1-149), nickel chelate AlphaLISA acceptor beads (PerkinElmer AL108R), and AlphaScreen glutathione donor beads (PerkinElmer 6765302) were added to the assay wells and incubated for 10 minutes. The assay plates were then read on a PerkinElmer EnVision Multilabel Reader, using AlphaScreen® technology, and data were analyzed using a 4-parameter logistic model to calculate IC50 values.
(Bead proximity is the source of the signal in Alpha formats.)

In experiment [2] the test system is Phosphorylation of ERK1/2 in MIA PaCa-2 cells. Kind of experiment: Phospho-ERK1/2 MSD Assay. Particulars: compound 2 or 4 hours, then 10 ng/mL EGF for 10 min, read-out: p-ERK IC50 (MIA-PaCa-2) (converted). The experiment is classed as cell-based. Here is the method: as §1
Phospho-ERK1/2 MSD Assay: MIA PaCa-2 (ATCC® CRL-1420™) cells were cultured in RPMI 1640 Medium (ThermoFisher Scientific 11875093) containing 10% fetal bovine serum (ThermoFisher Scientific 16000044) and 1× penicillin-streptomycin-glutamine (ThermoFisher Scientific 10378016). Sixteen hours prior to compound treatment, MIA PaCa-2 cells were seeded in 96-well cell culture plates at a density of 25,000 cells/well and incubated at 37° C., 5% CO2. A compound dose-response titration was diluted in growth media, added to appropriate wells of a cell culture plate, and then incubated at 37° C., 5% CO2 for 2 or 4 hours. Following compound treatment, cells were stimulated with 10 ng/mL EGF (Roche 11376454001) for 10 min, washed with ice-cold Dulbecco's phosphate-buffered saline, no Ca^2+ or Mg^2+ (ThermoFisher Scientific 14190144), and then lysed in RIPA buffer (50 mM Tris-HCl pH 7.5, 1% Igepal, 0.5% sodium deoxycholate, 150 mM NaCl, and 0.5% sodium dodecyl sulfate) containing protease inhibitors (Roche 4693132001) and phosphatase inhibitors (Roche 4906837001). Phosphorylation of ERK1/2 in compound-treated lysates was assayed using Phospho-ERK1/2 Whole Cell Lysate kits (Meso Scale Discovery K151DWD) according to the manufacturer's protocol. Assay plates were read on a Meso Scale Discovery Sector imager 6000, and data were analyzed using a 4-parameter logistic model to calculate IC50 values.

[3] abbreviates: Homo sapiens, MIA PaCa-2, MIA PaCa-2 cells.

These results are taken from US10988485B2 (Amgen Inc., priority 2018, dated 2021).

Like-named read-outs stand apart in the source and are kept apart here.

Sequence of GDP-bound KRAS protein (aa 1-169), containing both G12C and C118A amino acid substitutions (P01116 1-169 isoform P01116-2 G12C/C118A): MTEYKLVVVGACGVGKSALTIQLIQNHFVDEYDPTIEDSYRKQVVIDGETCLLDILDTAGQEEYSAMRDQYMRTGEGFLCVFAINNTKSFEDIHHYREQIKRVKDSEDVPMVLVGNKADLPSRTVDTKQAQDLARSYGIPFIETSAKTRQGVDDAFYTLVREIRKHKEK

The term IC50 denotes the point on the concentration scale where inhibition reaches its midpoint. Consider `C=CC(=O)N1C[C@H](C)N(C2=NS(=O)(=O)N(c3ccc(CN(C)C)cc3C3CC3)c3nc(-c4ccccc4F)c(Cl)cc32)C[C@H]1C` [Example 6, 1-((2R,5S)-4-(6-Chloro-1-(2-cyclopropyl-4-((dimethylamino)methyl)phenyl)-7-(2-fluorophenyl)-2,2-dioxido-1H-pyrido[2,3-c][1,2,6]thiadiazin-4-yl)-2,5-dimethyl-1-piperazinyl)-2-propen-1-one], for which the half-maximal inhibitory concentration (IC50) in experiment [1] and in experiment [2] (setting [3]) was 150 nM throughout.
For the compound `C=CC(=O)N1C[C@H](C)N(C2=NS(=O)(=O)N(c3ccccc3C(C)(C)C)c3nc(-c4ccccc4F)c(Cl)cc32)C[C@H]1C` [Example 1-1], the IC50 in experiment [2] (MIA PaCa-2 cells) was 340 nM.
As for `C=CC(=O)N1CCN(C2=NS(=O)(=O)N(c3c(C)ccnc3C(C)C)c3nc(-c4ccccc4F)c(Cl)cc32)[C@@H](C)C1` (single isomer, unassigned) [Example 2-2-2], the IC50 in experiment [1] is 2980 nM; in experiment [2] (MIA PaCa-2 cells) it was 1520 nM.
For `C=CC(=O)N1C[C@H](C)N(C2=NS(=O)(=O)N(c3c(C)cnn3C(C)C)c3nc(-c4ccccc4F)c(Cl)cc32)C[C@H]1C` [Example 1-11, 1-((2R,5S)-4-(6-chloro-7-(2-fluorophenyl)-1-(4-methyl-1-(2-propanyl)-1H-pyrazol-5-yl)-2,2-dioxido-1H-pyrido[2,3-c][1,2,6]thiadiazin-4-yl)-2,5-dimethyl-1-piperazinyl)-2-propen-1-one], the IC50 in experiment [1] and in experiment [2] (setting [3]) was 200 nM in each case.
Regarding `C=CC(=O)N1C[C@H](C)N(C2=NS(=O)(=O)N(c3c(N)ncnc3C(C)C)c3nc(-c4ccccc4F)c(Cl)cc32)C[C@H]1C` [Example 9], the results for the half-inhibitory concentration (IC50) in experiment [1] and in experiment [2] (MIA PaCa-2 cells) were 250 nM and 150 nM, respectively.
Take `C=CC(=O)N1CCN(C2=NS(=O)(=O)N(c3c(C(C)C)ncnc3C(C)C)c3nc(-c4ccccc4F)c(Cl)cc32)[C@@H](C)C1` [Example 2-4, (S)-1-(4-(6-chloro-1-(4,6-diisopropylpyrimidin-5-yl)-7-(2-fluorophenyl)-2,2-dioxido-1H-pyrido[2,3-c][1,2,6]thiadiazin-4-yl)-3-methylpiperazin-1-yl)prop-2-en-1-one]: the figures for the half-maximal inhibitory concentration (IC50) in experiment [1] and in experiment [2] (setting [3]) were 290 nM and 310 nM, respectively.
Consider `C=CC(=O)N1C[C@H](C)N(C2=NS(=O)(=O)N(c3c(C)ccnc3C(C)C)c3nc(-c4ccccc4C)c(Cl)cc32)C[C@H]1C` (single isomer, unassigned) [Example 1-12-1], for which the values for the IC50 in experiment [1] and in experiment [2] (setting [3]) were 220 nM and 290 nM, respectively.
The matching figures for `C=CC(=O)N1CCN(C2=NS(=O)(=O)N(c3ccccc3C(C)C)c3nc(-c4c(N)cccc4F)c(Cl)cc32)[C@@H](C)C1` [Example 1-3, 1-((3S)-4-(7-(2-amino-6-fluorophenyl)-6-chloro-2,2-dioxido-1-(2-(2-propanyl)phenyl)-1H-pyrido[2,3-c][1,2,6]thiadiazin-4-yl)-3-methyl-1-piperazinyl)-2-propen-1-one]: 60 nM and 70 nM.
`C=CC(=O)N1C[C@H](C)N(C2=NS(=O)(=O)N(c3c(C)cc(CN(C)C)cc3C(C)C)c3nc(-c4c(N)cccc4F)c(Cl)cc32)C[C@H]1C` [Example 8-1, 1-((2R,5S)-4-(7-(2-amino-6-fluorophenyl)-6-chloro-1-(4-((dimethylamino)methyl)-2-methyl-6-(2-propanyl)phenyl)-2,2-dioxido-1H-pyrido[2,3-c][1,2,6]thiadiazin-4-yl)-2,5-dimethyl-1-piperazinyl)-2-propen-1-one]: the IC50 in experiment [1] and in experiment [2] (MIA PaCa-2 cells) was 80 nM each time.
Consider `C=CC(=O)N1CCN(C2=NS(=O)(=O)N(c3ccc(CN(C)C)cc3C(C)C)c3nc(-c4ccccc4F)c(Cl)cc32)[C@@H](C)C1` [Example 3-1, 1-((3S)-4-(6-Chloro-1-(4-((dimethylamino)methyl)-2-(2-propanyl)phenyl)-7-(2-fluorophenyl)-2,2-dioxido-1H-pyrido[2,3-c][1,2,6]thiadiazin-4-yl)-3-methyl-1-piperazinyl)-2-propen-1-one], for which the results for the concentration for half-maximal inhibition (IC50) in experiment [1] and in experiment [2] (setting [3]) were 150 nM and 90 nM, respectively.
As to `C=CC(=O)N1C[C@H](C)N(C2=NS(=O)(=O)N(c3scnc3C(C)C)c3nc(-c4c(O)cccc4F)c(Cl)cc32)C[C@H]1C` [Example 1-5, 1-((2R,5S)-4-(6-chloro-7-(2-fluoro-6-hydroxyphenyl)-2,2-dioxido-1-(4-(2-propanyl)-1,3-thiazol-5-yl)-1H-pyrido[2,3-c][1,2,6]thiadiazin-4-yl)-2,5-dimethyl-1-piperazinyl)-2-propen-1-one], the concentration for half-maximal inhibition (IC50) in experiment [1] was 100 nM; in experiment [2] (setting [3]), 110 nM.
On to `C=CC(=O)N1C[C@H](C)N(C2=NS(=O)(=O)N(c3c(C)cc(CN(C)C)cc3C(C)C)c3nc(-c4c(N)cccc4F)c(Cl)cc32)C[C@H]1C` [Example 8, 1-((2R,5S)-4-(7-(2Amino-6-fluorophenyl)-6-chloro-1-(4-((dimethylamino)methyl)-2-methyl-6-(2-propanyl)phenyl)-2,2-dioxido-1H-pyrido[2,3-c][1,2,6]thiadiazin-4-yl)-2,5-dimethyl-1-piperazinyl)-2-propen-1-one], for which the values for the IC50 in experiment [1] and in experiment [2] (MIA PaCa-2 cells) were 190 nM and 270 nM, respectively.
For `C=CC(=O)N1CCN(C2=NS(=O)(=O)N(c3c(C)ccnc3C(C)C)c3nc(-c4ccccc4F)c(Cl)cc32)[C@@H](C)C1` (single isomer, unassigned) [Example 2-2-1], in that order: 240 nM and 270 nM.
Consider `C=CC(=O)N1CCN(C2=NS(=O)(=O)N(c3ccccc3C(C)C)c3nc(-c4c(O)cccc4F)c(Cl)cc32)[C@@H](C)C1` [Example 1-2, 1-((3S)-4-(6-chloro-7-(2-fluoro-6-hydroxyphenyl)-2,2-dioxido-1-(2-(2-propanyl)phenyl)-1H-pyrido[2,3-c][1,2,6]thiadiazin-4-yl)-3-methyl-1-piperazinyl)-2-propen-1-one], for which the IC50 in experiment [1] is 150 nM; in experiment [2] (setting [3]), 270 nM.
`C=CC(=O)N1CCN(C2=NS(=O)(=O)N(c3ccccc3C(C)C)c3nc(-c4ccccc4S(C)(=O)=O)c(Cl)cc32)[C@@H](C)C1` [Example 1-9, 1-((3S)-4-(6-chloro-7-(2-(methylsulfonyl)phenyl)-2,2-dioxido-1-(2-(2-propanyl)phenyl)-1H-pyrido[2,3-c][1,2,6]thiadiazin-4-yl)-3-methyl-1-piperazinyl)-2-propen-1-one]: the figures for the IC50 in experiment [1] and in experiment [2] (setting [3]) were 190 nM and 180 nM, respectively.
Consider `C=CC(=O)N1C[C@H](C)N(C2=NS(=O)(=O)N(c3c(C)cnn3C(C)C)c3nc(-c4ccccc4F)c(Cl)cc32)C[C@H]1C` (single isomer, unassigned) [Example 1-11-2], for which the IC50 is 150 nM in experiment [1] and 330 nM in experiment [2] (MIA PaCa-2 cells).
Consider `C=CC(=O)N1C[C@H](C)N(C2=NS(=O)(=O)N(c3ccccc3C(C)C)c3nc(-c4ccccc4F)c(Cl)cc32)C[C@H]1C` [Example 2-3, 1-((2R,5S)-4-(6-chloro-7-(2-fluorophenyl)-1-(2-isopropylphenyl)-2,2-dioxido-1H-pyrido[2,3-c][1,2,6]thiadiazin-4-yl)-2,5-dimethylpiperazin-1-yl)prop-2-en-1-one], for which the concentration for half-maximal inhibition (IC50) in experiment [1] is 180 nM; in experiment [2] (setting [3]) it was 240 nM.
For `C=CC(=O)N1C[C@H](C)N(C2=NS(=O)(=O)N(c3ccccc3C(C)C)c3nc(-c4c(O)cccc4F)c(Cl)cc32)C[C@H]1C` [Example 1-4, 1-((2R,5S)-4-(6-chloro-7-(2-fluoro-6-hydroxyphenyl)-2,2-dioxido-1-(2-(2-propanyl)phenyl)-1H-pyrido[2,3-c][1,2,6]thiadiazin-4-yl)-2,5-dimethyl-1-piperazinyl)-2-propen-1-one], in that order: 170 nM and 160 nM.
Take `C=CC(=O)N1C[C@H](C)N(C2=NS(=O)(=O)N(c3c(CC)cccc3CC)c3nc(-c4c(N)cccc4F)c(Cl)cc32)C[C@H]1C` [Example 1-7, 1-((2R,5S)-4-(7-(2-amino-6-fluorophenyl)-6-chloro-1-(2,6-diethylphenyl)-2,2-dioxido-1H-pyrido[2,3-c][1,2,6]thiadiazin-4-yl)-2,5-dimethyl-1-piperazinyl)-2-propen-1-one]: the IC50 in experiment [1] amounted to 890 nM.
